What was measured:
giant foxtail = test: Test C preemergence/postemergence greenhouse plant response rating 0 to 100; type: in vivo, Setaria faberii; conditions: for Plant response rating, Giant foxtail: 125 g/ha, 0 to 100 scale
Procedure, shortened: (§1)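 Compounds in non-phytotoxic solvent went onto sandy loam before emergence (seeded one day earlier) or onto plants at the one-to-four leaf stage. Duck salad was treated via flood water (~2.5 cm, maintained) over silt loam.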

sugar beet = test: as above; type: in vivo, Beta vulgaris; conditions: for Plant response rating, Sugar beet: 125 g/ha, 0 to 100 scale
Procedure, shortened: as §1

wild oat = test: Test B preemergence/postemergence greenhouse plant response rating 0 to 10; type: in vivo, Avena fatua; conditions: 0 to 10 scale
Procedure, shortened: (§2)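 Test chemicals were sprayed onto freshly planted seed and, concurrently, onto young plants between the one and four leaf stage. After a twelve- to sixteen-day greenhouse period, each species was visually compared with untreated controls.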

lambsquarters [1] = test: as above; type: in vivo, Chenopodium album; conditions: 0 to 10 scale
Procedure, shortened: as §2

sorghum = test: Test C preemergence/postemergence greenhouse plant response rating 0 to 100; type: in vivo, Sorghum bicolor; conditions: for Plant response rating, Sorghum: 125 g/ha, 0 to 100 scale
Procedure, shortened: as §1

wheat = test: Test B preemergence/postemergence greenhouse plant response rating 0 to 10; type: in vivo, Triticum aestivum; conditions: 0 to 10 scale
Procedure, shortened: as §2

corn = test: as above; type: in vivo, Zea mays; conditions: 0 to 10 scale
Procedure, shortened: as §2

duck salad = test: Test C flood test plant response rating 0 to 100; type: in vivo, Heteranthera limosa
Procedure, shortened: as §1

crabgrass = test: Test C preemergence/postemergence greenhouse plant response rating 0 to 100; type: in vivo, Digitaria sanguinalis; conditions: for Plant response rating, Crabgrass: 125 g/ha, 0 to 100 scale
Procedure, shortened: as §1

bedstraw = test: as above; type: in vivo, Galium aparine; conditions: for Plant response rating, Bedstraw: 125 g/ha, 0 to 100 scale
Procedure, shortened: as §1

rice = test: Test B preemergence/postemergence greenhouse plant response rating 0 to 10; type: in vivo, Oryza sativa; conditions: 0 to 10 scale
Procedure, shortened: as §2

cheatgrass = test: as above; type: in vivo, Bromus secalinus; conditions: 0 to 10 scale
Procedure, shortened: as §2

barnyardgrass = test: Test C flood test plant response rating 0 to 100; type: in vivo, Echinochloa crus-galli
Procedure, shortened: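 Compounds in non-phytotoxic solvent applied preemergence to sandy loam one day after planting, postemergence at the 1–4 leaf stage, or to ~2.5 cm floodwater over silt loam.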

downy brome = test: Test C preemergence/postemergence greenhouse plant response rating 0 to 100; type: in vivo, Bromus tectorum; conditions: for Plant response rating Downy Brome: 125 g/ha, 0 to 100 scale
Procedure, shortened: as §1

cotton [2] = test: as above; type: in vivo, Gossypium hirsutum; conditions: for Plant response rating, Cotton: 125 g/ha, 0 to 100 scale
Procedure, shortened: as §1

cotton [3] = test: Test B preemergence/postemergence greenhouse plant response rating 0 to 10; type: in vivo, Gossypium hirsutum; conditions: 0 to 10 scale
Procedure, shortened: as §2

velvetleaf = test: Test C preemergence/postemergence greenhouse plant response rating 0 to 100; type: in vivo, Abutilon theophrasti; conditions: for Plant response rating, Velvetleaf: 125 g/ha, 0 to 100 scale
Procedure, shortened: as §1

lambsquarters [4] = test: as above; type: in vivo, Chenopodium album; conditions: PREEMERGENCE
Procedure, shortened: as §1

[5] = POSTEMERGENCE section, flood test, Rate 2 g/ha
[6] = Rate 8 g/ha, under POSTEMERGENCE head (flood test species)
[7] = Rate 31 g/ha, under POSTEMERGENCE head (flood test species)
[8] = flood test species listed under POSTEMERGENCE, 125 g/ha, 0 to 100 scale

Fc1cc(Cl)ccc1-c1nn2c(c1Br)CCCC2 [Compound 52]
60: Plant response rating, Sorghum (sorghum; POSTEMERGENCE)
25: Plant response rating (0 to 100), Barnyardgrass 2 (barnyardgrass; [5])
1: Plant response rating, Corn (corn; PREEMERGENCE, Rate 50 g/ha) | Plant response rating, Rice (rice; Rate 200 g/ha, PREEMERGENCE)
0: Plant response rating (0 to 100), Giant foxtail (giant foxtail; PREEMERGENCE, Rate 2 g/ha) | Plant response rating (0 to 100), Sugar beet (sugar beet; PREEMERGENCE, Rate 2 g/ha) | Plant response rating (0 to 100), Sugar beet (sugar beet; Rate 8 g/ha, PREEMERGENCE) | Plant response rating (0 to 100), Sorghum (sorghum; PREEMERGENCE, Rate 2 g/ha) | Plant response rating (0 to 100), Sorghum (sorghum; Rate 8 g/ha, PREEMERGENCE) | Plant response rating (0 to 100), Sorghum (sorghum; Rate 31 g/ha, PREEMERGENCE) | Plant response rating (0 to 100), Duck salad (duck salad; [5]) | Plant response rating (0 to 100), Duck salad (duck salad; [6]) | Plant response rating (0 to 100), Crabgrass (crabgrass; PREEMERGENCE, Rate 2 g/ha) | Plant response rating (0 to 100), Crabgrass (crabgrass; Rate 8 g/ha, PREEMERGENCE) | Plant response rating (0 to 100), Bedstraw (bedstraw; PREEMERGENCE, Rate 2 g/ha) | Plant response rating (0 to 100), Bedstraw (bedstraw; Rate 8 g/ha, PREEMERGENCE) | Plant response rating, Rice (rice; PREEMERGENCE, Rate 50 g/ha) | Plant response rating (0 to 100), Downy Brome (downy brome; PREEMERGENCE, Rate 2 g/ha) | Plant response rating (0 to 100), Downy Brome (downy brome; Rate 8 g/ha, PREEMERGENCE) | Plant response rating (0 to 100), Downy Brome (downy brome; Rate 31 g/ha, PREEMERGENCE) | Plant response rating, Cotton (cotton [2]; PREEMERGENCE) | Plant response rating (0 to 100), Cotton (cotton [2]; PREEMERGENCE, Rate 2 g/ha) | Plant response rating (0 to 100), Cotton (cotton [2]; Rate 8 g/ha, PREEMERGENCE) | Plant response rating (0 to 100), Cotton (cotton [2]; Rate 31 g/ha, PREEMERGENCE) | Plant response rating, Cotton (cotton [3]; PREEMERGENCE, Rate 50 g/ha) | Plant response rating (0 to 100), Velvetleaf (velvetleaf; PREEMERGENCE, Rate 2 g/ha) | Plant response rating (0 to 100), Lambsquarters (lambsquarters [4]; Rate 2 g/ha) | Plant response rating (0 to 100), Lambsquarters (lambsquarters [4]; Rate 8 g/ha)
6: Plant response rating, Corn (corn; POSTEMERGENCE, Rate 50 g/ha) | Plant response rating, Rice (rice; Rate 200 g/ha, POSTEMERGENCE) | Plant response rating, Cheatgrass (cheatgrass; PREEMERGENCE, Rate 50 g/ha)
7: Plant response rating, Wheat (wheat; Rate 200 g/ha, PREEMERGENCE) | Plant response rating, Cheatgrass (cheatgrass; POSTEMERGENCE, Rate 200 g/ha)
10: Plant response rating (0 to 100), Giant foxtail (giant foxtail; Rate 8 g/ha, PREEMERGENCE) | Plant response rating, Lambsquarter (lambsquarters [1]; PREEMERGENCE, Rate 50 g/ha) | Plant response rating, Lambsquarter (lambsquarters [1]; Rate 200 g/ha, POSTEMERGENCE) | Plant response rating, Lambsquarter (lambsquarters [1]; Rate 200 g/ha, PREEMERGENCE) | Plant response rating, Sorghum (sorghum; PREEMERGENCE) | Plant response rating (0 to 100), Crabgrass (crabgrass; POSTEMERGENCE, Rate 2 g/ha) | Plant response rating (0 to 100), Crabgrass (crabgrass; Rate 31 g/ha, PREEMERGENCE) | Plant response rating (0 to 100), Bedstraw (bedstraw; Rate 31 g/ha, PREEMERGENCE) | Plant response rating, Cheatgrass (cheatgrass; Rate 200 g/ha, PREEMERGENCE) | Plant response rating (0 to 100), Downy Brome (downy brome; POSTEMERGENCE, Rate 2 g/ha) | Plant response rating, Cotton (cotton [3]; POSTEMERGENCE, Rate 50 g/ha) | Plant response rating, Cotton (cotton [3]; POSTEMERGENCE, Rate 200 g/ha)
3: Plant response rating, Cotton (cotton [3]; Rate 200 g/ha, PREEMERGENCE)
50: Plant response rating (0 to 100), Giant foxtail (giant foxtail; Rate 31 g/ha, POSTEMERGENCE) | Plant response rating (0 to 100), Sorghum (sorghum; Rate 31 g/ha, POSTEMERGENCE) | Plant response rating (0 to 100), Bedstraw (bedstraw; POSTEMERGENCE, Rate 2 g/ha) | Plant response rating Downy Brome (downy brome; PREEMERGENCE) | Plant response rating (0 to 100), Downy Brome (downy brome; Rate 31 g/ha, POSTEMERGENCE) | Plant response rating (0 to 100), Velvetleaf (velvetleaf; POSTEMERGENCE, Rate 2 g/ha) | Plant response rating (0 to 100), Lambsquarters (lambsquarters [4]; Rate 31 g/ha)
4: Plant response rating, Wild oat (wild oat; PREEMERGENCE, Rate 50 g/ha) | Plant response rating, Wheat (wheat; POSTEMERGENCE, Rate 50 g/ha) | Plant response rating, Wheat (wheat; PREEMERGENCE, Rate 50 g/ha) | Plant response rating, Corn (corn; Rate 200 g/ha, PREEMERGENCE) | Plant response rating, Rice (rice; POSTEMERGENCE, Rate 50 g/ha) | Plant response rating, Cheatgrass (cheatgrass; POSTEMERGENCE, Rate 50 g/ha)
8: Plant response rating, Wild oat (wild oat; Rate 200 g/ha, POSTEMERGENCE) | Plant response rating, Wheat (wheat; Rate 200 g/ha, POSTEMERGENCE) | Plant response rating, Corn (corn; POSTEMERGENCE, Rate 200 g/ha)
100: Plant response rating, Sugar beet (sugar beet; POSTEMERGENCE) | Plant response rating, Sugar beet (sugar beet; PREEMERGENCE) | Plant response rating (0 to 100), Sugar beet (sugar beet; Rate 31 g/ha, POSTEMERGENCE) | Plant response rating, Bedstraw (bedstraw; POSTEMERGENCE) | Plant response rating (0 to 100), Barnyardgrass 2 (barnyardgrass; [7]) | Plant response rating Barnyardgrass 2 (barnyardgrass; [8]) | Plant response rating, Cotton (cotton [2]; POSTEMERGENCE) | Plant response rating, Velvetleaf (velvetleaf; POSTEMERGENCE) | Plant response rating, Velvetleaf (velvetleaf; PREEMERGENCE) | Plant response rating (0 to 100), Velvetleaf (velvetleaf; Rate 31 g/ha, POSTEMERGENCE) | Plant response rating (0 to 100), Velvetleaf (velvetleaf; Rate 31 g/ha, PREEMERGENCE) | Plant response rating Lambsquarters (lambsquarters [4]; 125 g/ha, 0 to 100 scale)
85: Plant response rating, Giant foxtail (giant foxtail; POSTEMERGENCE) | Plant response rating Duck salad (duck salad; [8])
90: Plant response rating, Giant foxtail (giant foxtail; PREEMERGENCE) | Plant response rating Downy Brome (downy brome; POSTEMERGENCE) | Plant response rating (0 to 100), Velvetleaf (velvetleaf; Rate 8 g/ha, POSTEMERGENCE)
70: Plant response rating (0 to 100), Sugar beet (sugar beet; POSTEMERGENCE, Rate 2 g/ha) | Plant response rating (0 to 100), Sugar beet (sugar beet; Rate 8 g/ha, POSTEMERGENCE) | Plant response rating (0 to 100), Sugar beet (sugar beet; Rate 31 g/ha, PREEMERGENCE) | Plant response rating, Crabgrass (crabgrass; POSTEMERGENCE) | Plant response rating (0 to 100), Bedstraw (bedstraw; Rate 8 g/ha, POSTEMERGENCE) | Plant response rating (0 to 100), Bedstraw (bedstraw; Rate 31 g/ha, POSTEMERGENCE) | Plant response rating (0 to 100), Cotton (cotton [2]; POSTEMERGENCE, Rate 2 g/ha)
5: Plant response rating, Wild oat (wild oat; POSTEMERGENCE, Rate 50 g/ha)
30: Plant response rating (0 to 100), Giant foxtail (giant foxtail; Rate 31 g/ha, PREEMERGENCE) | Plant response rating (0 to 100), Sorghum (sorghum; POSTEMERGENCE, Rate 2 g/ha) | Plant response rating (0 to 100), Crabgrass (crabgrass; Rate 8 g/ha, POSTEMERGENCE) | Plant response rating (0 to 100), Velvetleaf (velvetleaf; Rate 8 g/ha, PREEMERGENCE)
40: Plant response rating (0 to 100), Giant foxtail (giant foxtail; Rate 8 g/ha, POSTEMERGENCE) | Plant response rating (0 to 100), Sorghum (sorghum; Rate 8 g/ha, POSTEMERGENCE) | Plant response rating (0 to 100), Crabgrass (crabgrass; Rate 31 g/ha, POSTEMERGENCE)
80: Plant response rating, Crabgrass (crabgrass; PREEMERGENCE) | Plant response rating, Bedstraw (bedstraw; PREEMERGENCE)
9: Plant response rating, Lambsquarter (lambsquarters [1]; POSTEMERGENCE, Rate 50 g/ha)
95: Plant response rating (0 to 100), Barnyardgrass 2 (barnyardgrass; [6]) | Plant response rating (0 to 100), Cotton (cotton [2]; Rate 8 g/ha, POSTEMERGENCE) | Plant response rating (0 to 100), Cotton (cotton [2]; Rate 31 g/ha, POSTEMERGENCE)
20: Plant response rating (0 to 100), Giant foxtail (giant foxtail; POSTEMERGENCE, Rate 2 g/ha) | Plant response rating (0 to 100), Duck salad (duck salad; [7]) | Plant response rating (0 to 100), Downy Brome (downy brome; Rate 8 g/ha, POSTEMERGENCE)

— patent US6358885B1, “Substituted phenylheterocyclic herbicides” (Mississippi State University, priority 1992, dated 2002)
